From patent US10369145B2, “Coumarin derivatives and methods of use in treating hyperproliferative diseases” (DISCOVERYBIOMED, INC., priority 2013, dated 2019)

Experiments:
Type in all cases: cell-based
CCRF-CEM = assay: NCI 60 panel: CCRF-CEM (Leukemia)
From the text: (§3) TGI means the drug concentration resulting in total growth inhibition or “cytostasis.” LC50 is the concentration of drug resulting in a 50% reduction in the measured cytosolic ATP at the end of the drug treatment as compared to that at the beginning, indicating a net loss of cells following treatment (cytotoxicity).

NCI-H460 = assay: NCI 60 panel: NCI-H460 (Non-Small Cell Lung Cancer)
From the text: as §3

UACC-257 = assay: NCI 60 panel: UACC-257 (Melanoma)
From the text: as §3

OVCAR-4 = assay: NCI 60 panel: OVCAR-4 (Ovarian Cancer)
From the text: as §3

A498 = assay: NCI 60 panel: A498 (Renal Cancer)
From the text: as §3

CAKI-1 = assay: NCI 60 panel: CAKI-1 (Renal Cancer)
From the text: as §3

SN12C = assay: NCI 60 panel: SN12C (Renal Cancer)
From the text: as §3

MCF7 = assay: NCI 60 panel: MCF7 (Breast Cancer)
From the text: as §3

MDA-MB-231 = assay: NCI 60 panel: MDA-MB-231 (Breast Cancer)
From the text: as §3

T-47D = assay: NCI 60 panel: T-47D (Breast Cancer)
From the text: as §3

U118MG = assay: Complementary DBM in vitro profiling: U118MG (CNS Cancer)
Experimental: The compounds described herein are effective for inhibiting cellular proliferation in hyperproliferative cell types. To study the effects of these compounds, an assay was developed to differentiate the effects of the compounds on proliferating versus confluent cells. The assay design generates a proliferating density 24 hours after seeding and provides a 3-day active cell growth/doubling window in which to gauge the anti-proliferative effect of the compounds described herein. […] In this 3-day growth window, cell number increases with daily doublings across the 72-hour period (see FIG. 1).
In each assay design, compounds were added at the 24-hour timepoint after cell seeding. The effect of the compounds, relative to vehicle control and to VelCade (a proteasome inhibitor approved in the U.S. for treating relapsed multiple myeloma and mantle cell lymphoma) as a positive control, was assessed across the 3-day growth window for proliferating cells and on an already near confluent culture of cells for the same time period. Normal cells were handled in the same manner, with some adjustment of seeding density needed in select cases. […]
Cell number at the end of the assay was determined using the CELLTITER-GLO Luminescent Cell Viability Assay (Promega; Madison, Wis.). The CELLTITER-GLO Luminescent Cell Viability Assay is a homogeneous method of determining the number of viable cells in culture based on quantitation of the ATP present, an indicator of metabolically active cells. IC50 values were calculated. […]
(§1) For a typical screening experiment to identify the compounds, cells were seeded into 96- or 384-well microtiter plates at plating densities pre-determined for each cell line to ensure drug exposure occurs during the proliferative phase well before confluency is reached. […] Values were calculated for each of these three parameters if the level of activity was reached; however, if the effect was not reached or was exceeded, the value for that parameter was expressed as greater or less than the maximum or minimum concentration tested.

myeloma cells = tested on: myeloma cells
Experimental: as §1, with “reached. After seeding, cells were incubated for 24 h prior to addition of experimental drugs. After 24 h, a test plate was assayed (CellTiterGlo—measurement of cytosolic ATP) to determine a baseline measurement of the cell population for each cell line at the time of drug addition. Experimental drugs were then added and cells were cultured for a 48 h drug exposure window.” for “reached.”

[1] = tested on: hyperproliferative PKD cells (cloned polycystic kidney tissue cells); assay: Concentration-response in primary cultures cloned from cystic kidney tissue; conditions: hyperproliferative PKD cells, 72 hour treatment
Experimental: (§2) The concentration-response effects of Compound DBM 228, Compound DBM 308, Compound DBM 101, and Compound DBM 328 were determined in primary cultures derived as ‘clones’ from cystic versus non-cystic kidney tissue. CRC graphs, IC50 values, and the percent maximum inhibition versus lowest doses without effect were calculated with GraphPad Prism software. […] There was also a marked separation in effect between hyperproliferative PKD cells (FIG. 5A and Table 3) and WT cells (FIG. 5B and Table 4).

[2] = tested on: WT cells (cloned non-cystic kidney tissue cells); assay: Concentration-response in primary cultures cloned from non-cystic kidney tissue; conditions: 72 hour treatment
Experimental: as §2

[3] = read-out: LC50 (the source's name)
[4] = myeloma cells, 48 h drug exposure

COc1ccccc1Nc1nc(-c2cc3cccc(N)c3oc2=O)cs1 [Compound DBM 228]
GI50 (CCRF-CEM): 0.177 µM
LC50 (50% lethal concentration) (CCRF-CEM): > 100 µM
TGI (CCRF-CEM): 15.4 µM
GI50 (NCI-H460): 0.0912 µM
TGI (NCI-H460): 14.2 µM
CC50 (NCI-H460; [3]): > 100 µM
TGI (UACC-257): 33.7 µM
CC50 (UACC-257; [3]): > 100 µM
GI50 (OVCAR-4): 1.35 µM
TGI (OVCAR-4): 25 µM
CC50 (OVCAR-4; [3]): > 100 µM
GI50 (A498): 0.0354 µM
TGI (A498): 4.42 µM
CC50 (A498; [3]): > 100 µM
GI50 (CAKI-1): 0.115 µM
TGI (CAKI-1): 27.9 µM
CC50 (CAKI-1; [3]): > 100 µM
GI50 (SN12C): 0.526 µM
TGI (SN12C): >100 µM
CC50 (SN12C; [3]): > 100 µM
GI50 (MCF7): 0.0545 µM
TGI (MCF7): >100 µM
CC50 (MCF7; [3]): > 100 µM
GI50 (MDA-MB-231): 1.37 µM
TGI (MDA-MB-231): 12 µM
CC50 (MDA-MB-231; [3]): > 100 µM
TGI (T-47D): 55.9 µM
CC50 (T-47D; [3]): > 100 µM
GI50 (U118MG): 2.71 µM
TGI (U118MG): 7.85 µM
CC50 (U118MG; [3]): > 30 µM
CC50 (myeloma cells): > 4 µM
GI50 (myeloma cells; [4]): 0.16 µM
TGI (myeloma cells; [4]): 0.271 µM
IC50 [1]: 0.69 µM
Max inhibition [1]: 61%
IC50 [2]: > 100 µM
Max inhibition [2]: 49%
